The test system of the test is MCF-7 cells. Briefly: TUNEL staining. The settings on record: MCF-7, varying concentrations. The format is cell-based, human. How it is done:
To investigate whether hybrid A8 exerts an antitumor effect on MCF-7 cells by inducing apoptosis, an annexin V-FITC/PI binding assay was performed. MCF-7 cells were treated with vehicle or various concentrations (2.5, 5 and 10 μM) of hybrid A8 for 48 h and were then stained with FITC-annexin V and propidium iodide (PI). The percentages of apoptotic MCF-7 cells were determined by flow cytometry. A8-induced apoptosis in a dose-dependent manner. The percentages of total apoptotic cells (Q1-UR + Q1-LR) were 17.99% (2.5 μM), 35.98% (5 μM) and 48.65% (10 μM). […] In addition, obvious changes in cell morphology were also observed.
The slides were immersed in 4% paraformaldehyde (pH 7.4) for 25 min at room temperature and then washed with PBS 3 times. The cells were immersed in 0.1% Triton X-100 solution prepared with PBS for 10 min (operation on ice) and then washed twice with PBS. Dilute 5 × equilibration buffer with deionized water and 100 μL 1 × equilibration buffer was added to each climbing tablet to cover the sample area to be tested, then incubated at room temperature for 15 min. […] The water-absorbent paper was used to absorb the liquid on the climbing sheet, and the sealing liquid containing anti fluorescence quenching agent was used to seal the film, and then the images were observed and collected under the fluorescence microscope.

Consider one molecule from article PMC9779727, “Identification of Novel Artemisinin Hybrids Induce Apoptosis and Ferroptosis in MCF-7 Cells” (International Journal of Molecular Sciences, 2022).

The structures appear in SMILES notation.

With `CC1CCC2C(C)C(OC(=O)CCC(=O)NCc3nnc(Nc4ccc(F)cc4F)o3)OC3OC4(C)CCC1C32OO4` (stereo not shown) [A8], the “number of cells that emitted red fluorescence (apoptotic cells), TUNEL (in words)” value is “increased as the administration concentration increased”.
